Experimental data taken from patent US20070128217A1 (priority 2003, published 2007).

What was measured:
[1] = test system: control sera (pooled serum of ten healthy LUMC hospital workers; commercial negative donor pooled serum from the Dutch bloodbank); format: binding, human
[2] = test system: antibodies in sera from SARS patients (sera 1a, 1b, 2, 6, 37, 62, London, SARS-yellow, SARS-green); format: binding, human
[3] = test system: rabbit serum obtained by immunizing a rabbit with the SARS-CoV strain Frankfurt 1; format: binding; parameters: Binding of a rabbit serum to linear peptides / Binding of a rabbit serum to looped peptides / Rabbit serum linear peptides / Rabbit serum looped peptides / Binding of a rabbit serum to linear peptides of protein N of SARS-CoV Urbani (Rabbit serum linear peptides) / Binding of a rabbit serum to looped/cyclic peptides of protein N of SARS-CoV Urbani (Rabbit serum looped peptides): unit not given here

Sequence | Binding of Control Serum Blood-Bank to Looped peptides [1] | Binding of Control serum Blood-bank to linear peptides [1] | Binding of Control serum LUMC to linear peptides [1] | Binding of Control serum LUMC to looped peptides [1] | Binding of serum 1a to linear peptides of protein E of SARS-CoV Urbani [2] | Binding of serum 1a to looped/cyclic peptides of protein E of SARS-CoV Urbani [2] | Binding of serum 1b to linear peptides of protein E of SARS-CoV Urbani [2] | Binding of serum 1b to looped/cyclic peptides of protein E of SARS-CoV Urbani [2] | Binding of serum 2 to linear peptides of protein E of SARS-CoV Urbani [2] | Binding of serum 2 to looped/cyclic peptides of protein E of SARS-CoV Urbani [2] | Binding of serum 6 to linear peptides of protein E of SARS-CoV Urbani [2] | Binding of serum 6 to looped/cyclic peptides of protein E of SARS-CoV Urbani [2] | Binding of serum 37 to linear peptides of protein E of SARS-CoV Urbani [2] | Binding of serum 37 to looped/cyclic peptides of protein E of SARS-CoV Urbani [2] | Binding of serum 62 to linear peptides of protein E of SARS-CoV Urbani [2] | Binding of serum 62 to looped/cyclic peptides of protein E of SARS-CoV Urbani [2] | Binding of serum London to linear peptides of protein E of SARS-CoV Urbani [2] | Binding of serum London to looped/cyclic peptides of protein E of SARS-CoV Urbani [2] | Binding of serum SARS-green to linear peptides of protein E of SARS-CoV Urbani [2] | Binding of serum SARS-green to looped/cyclic peptides of protein E of SARS-CoV Urbani [2] | also measured
VLLFLAFVVFLLVTL | 0.5 | 0.8 | 0.5 | 0.7 | 0.8 | 0.6 | 0.9 | 0.5 | 0.8 | 0.5 | 0.9 | 0.4 | 0.8 | 0.6 | 0.8 | 0.8 | 0.6 | 0.4 | 0.5 | 0.3 | Binding of serum SARS-yellow to linear peptides of protein E of SARS-CoV Urbani [2]: 0.3; Binding of serum SARS-yellow to looped/cyclic peptides of protein E of SARS-CoV Urbani [2]: 0.6; Binding of a rabbit serum to linear peptides [3]: 0.5; Binding of a rabbit serum to looped peptides [3]: 0.5
AFVVFLLVTLAILTA | 0.8 | 0.5 | 0.4 | 0.5 | 0.8 | 0.5 | 0.6 | 0.4 | 0.4 | 0.4 | 0.6 | 0.5 | 0.7 | 0.5 | 0.7 | 0.6 | 0.6 | 0.4 | 0.4 | 0.5 | Binding of serum SARS-yellow to linear peptides of protein E of SARS-CoV Urbani [2]: 0.2; Binding of serum SARS-yellow to looped/cyclic peptides of protein E of SARS-CoV Urbani [2]: 0.5; Binding of a rabbit serum to linear peptides [3]: 0.7; Binding of a rabbit serum to looped peptides [3]: 0.1
IVNSVLLFLAFVVFL | 0.5 | 0.6 | 0.4 | 0.7 | 0.8 | 0.6 | 0.6 | 0.4 | 0.4 | 0.5 | 0.7 | 0.3 | 0.7 | 0.6 | 0.6 | 0.6 | 0.4 | 0.3 | 0.3 | 0.2 | Binding of serum SARS-yellow to linear peptides of protein E of SARS-CoV Urbani [2]: 0.2; Binding of serum SARS-yellow to looped/cyclic peptides of protein E of SARS-CoV Urbani [2]: 0.7; Binding of a rabbit serum to linear peptides [3]: 0.5; Binding of a rabbit serum to looped peptides [3]: 0.5
LAFVVFLLVTLAILT | 0.8 | 0.6 | 0.5 | 0.6 | 0.8 | 0.5 | 0.5 | 0.5 | 0.5 | 0.5 | 0.7 | 0.5 | 0.7 | 0.6 | 0.7 | 0.6 | 0.6 | 0.5 | 0.3 | 0.5 | Binding of serum SARS-yellow to linear peptides of protein E of SARS-CoV Urbani [2]: 0.1; Binding of serum SARS-yellow to looped/cyclic peptides of protein E of SARS-CoV Urbani [2]: 0.4; Binding of a rabbit serum to linear peptides [3]: 0.5; Binding of a rabbit serum to looped peptides [3]: 0.2
